Results on 13 compounds are retold here after patent US9108944B2, “Androgen receptor modulators and uses thereof” (ARAGON PHARMACEUTICALS, INC., priority 2010, dated 2015).

Some results are limits rather than exact numbers.

In assay [1] the target is T1, AR-VP16 (Homo sapiens, UniProt P10275).
T1 sequence (P10275 560-920 limits assumed): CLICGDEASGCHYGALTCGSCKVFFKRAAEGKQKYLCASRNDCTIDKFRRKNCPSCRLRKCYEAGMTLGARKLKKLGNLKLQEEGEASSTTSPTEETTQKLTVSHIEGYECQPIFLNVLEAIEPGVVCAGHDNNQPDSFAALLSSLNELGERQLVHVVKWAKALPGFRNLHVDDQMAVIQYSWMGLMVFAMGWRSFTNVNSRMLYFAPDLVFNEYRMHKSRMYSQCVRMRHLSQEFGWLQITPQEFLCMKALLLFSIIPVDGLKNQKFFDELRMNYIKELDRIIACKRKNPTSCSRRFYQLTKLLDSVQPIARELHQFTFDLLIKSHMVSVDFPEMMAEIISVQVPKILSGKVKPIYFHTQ
Put plainly: AR-VP16 DNA Binding Assay, antagonist mode (HepG2 cells, 0.1 nM R1881). The class given is cell-based. In a few lines: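 HepG2 cells transiently transfected with AR-VP16 (Lipofectin), incubated overnight, then treated with compound in RPMI with charcoal-stripped serum. Antagonist mode adds R1881 at 0.1 nM final. Cells lysed after 48 h incubation for read-out.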

The target in assay [2] is T1, AR-VP16. As to the kind of experiment: AR-VP16 DNA Binding Assay, agonist mode (HepG2 cells). The class given is cell-based. Conditions: Emax >20x DMSO control = agonist.

`Cc1cc(N2C(=O)C3(CCC3)N(c3ccc(C(=O)NCc4ccc(F)cc4)c(F)c3)C2=S)cnc1C#N` [Compound 293, 4-(7-(6-Cyano-5-methylpyridin-3-yl)-8-oxo-6-thioxo-5,7-diazaspiro[3.4]octan-5-yl)-2-fluoro-N-(4-fluorobenzyl)benzamide]: in assay [1], the IC50 was < 1000 nM. Moreover, in assay [2], the “ARVP16 DNA Binding Assay (Agonist mode): Agonist?” value (“ARVP16 DNA Binding Assay” below) is recorded as “No (Agonist defined as a compound whose Emax in the ARVP16 DNA Binding Assay (Agonist mode) is >20x DMSO control)”.

Consider `Cc1cc(N2C(=O)C3(CCC3)N(c3ccc(C(=O)Nc4ccccc4Cl)c(F)c3)C2=S)cnc1C#N` [Compound 294, N-(2-Chlorophenyl)-4-(7-(6-cyano-5-methylpyridin-3-yl)-8-oxo-6-thioxo-5,7-diazaspiro[3.4]octan-5-yl)-2-fluorobenzamide], for which, in assay [1], the IC50 was < 1000 nM. Further, in assay [2], the “ARVP16 DNA Binding Assay” value is “No (Agonist defined as a compound whose Emax in the ARVP16 DNA Binding Assay (Agonist mode) is >20x DMSO control)”.

Regarding `Cc1cc(N2C(=O)C3(CCC3)N(c3ccc(C(=O)Nc4cccc(Cl)c4)c(F)c3)C2=S)cnc1C#N` [Compound 295, N-(3-Chlorophenyl)-4-(7-(6-cyano-5-methylpyridin-3-yl)-8-oxo-6-thioxo-5,7-diazaspiro[3.4]octan-5-yl)-2-fluorobenzamide], the IC50 in assay [1] was < 1000 nM. Also, the “ARVP16 DNA Binding Assay” value in assay [2] is listed as “No (Agonist defined as a compound whose Emax in the ARVP16 DNA Binding Assay (Agonist mode) is >20x DMSO control)”.

As to `Cc1cc(N2C(=O)C3(CCC3)N(c3ccc(C(=O)Nc4ccc(Cl)cc4)c(F)c3)C2=S)cnc1C#N` [Compound 296, N-(4-Chlorophenyl)-4-(7-(6-cyano-5-methylpyridin-3-yl)-8-oxo-6-thioxo-5,7-diazaspiro[3.4]octan-5-yl)-2-fluorobenzamide], in assay [1], the half-inhibitory concentration (IC50) is < 1000 nM. Besides, in assay [2], the “ARVP16 DNA Binding Assay” value is recorded as “No (Agonist defined as a compound whose Emax in the ARVP16 DNA Binding Assay (Agonist mode) is >20x DMSO control)”.

`Cc1cc(N2C(=O)C3(CCC3)N(c3ccc(C(=O)Nc4ccccc4F)c(F)c3)C2=S)cnc1C#N` [Compound 297, 4-(7-(6-Cyano-5-methylpyridin-3-yl)-8-oxo-6-thioxo-5,7-diazaspiro[3.4]octan-5-yl)-2-fluoro-N-(2-fluorophenyl)benzamide]: the IC50 in assay [1] was < 1000 nM. In addition, the “ARVP16 DNA Binding Assay” value in assay [2] is reported as “No (Agonist defined as a compound whose Emax in the ARVP16 DNA Binding Assay (Agonist mode) is >20x DMSO control)”.

For the compound `Cc1cc(N2C(=O)C3(CCC3)N(c3ccc(C(=O)Nc4cccc(F)c4)c(F)c3)C2=S)cnc1C#N` [Compound 298, 4-(7-(6-Cyano-5-methylpyridin-3-yl)-8-oxo-6-thioxo-5,7-diazaspiro[3.4]octan-5-yl)-2-fluoro-N-(3-fluorophenyl)benzamide], the IC50 in assay [1] was < 1000 nM. Moreover, the “ARVP16 DNA Binding Assay” value in assay [2] is “No (Agonist defined as a compound whose Emax in the ARVP16 DNA Binding Assay (Agonist mode) is >20x DMSO control)”.

On to `Cc1cc(N2C(=O)C3(CCC3)N(c3ccc(C(=O)Nc4ccn(C)n4)c(F)c3)C2=S)cnc1C#N` [Compound 303, 4-(7-(6-Cyano-5-methylpyridin-3-yl)-8-oxo-6-thioxo-5,7-diazaspiro[3.4]octan-5-yl)-2-fluoro-N-(1-methyl-1H-pyrazol-3-yl)benzamide], for which the IC50 in assay [1] was > 1000 nM. In assay [2], the “ARVP16 DNA Binding Assay” value is on record as “No (Agonist defined as a compound whose Emax in the ARVP16 DNA Binding Assay (Agonist mode) is >20x DMSO control)”.

On to `Cc1cc(N2C(=O)C3(CCC3)N(c3ccc(C(=O)Nc4cncc(F)c4)c(F)c3)C2=S)cnc1C#N` [Compound 305, 4-(7-(6-Cyano-5-methylpyridin-3-yl)-8-oxo-6-thioxo-5,7-diazaspiro[3.4]octan-5-yl)-2-fluoro-N-(5-fluoropyridin-3-yl)benzamide], for which the IC50 in assay [1] is < 1000 nM. Further, the “ARVP16 DNA Binding Assay” value in assay [2] is “No (Agonist defined as a compound whose Emax in the ARVP16 DNA Binding Assay (Agonist mode) is >20x DMSO control)”.

As for `N#Cc1ncc(N2C(=O)C3(CCC3)N(c3ccc(C(=O)NCCCO)c(F)c3)C2=S)cc1C(F)(F)F` [Compound 306, 4-(7-(6-cyano-5-(trifluoromethyl)pyridin-3-yl)-8-oxo-6-thioxo-5,7-diazaspiro[3.4]octan-5-yl)-2-fluoro-N-(3-hydroxypropyl)benzamide], the IC50 in assay [1] was < 1000 nM. Further, in assay [2], the “ARVP16 DNA Binding Assay” value is on record as “No (Agonist defined as a compound whose Emax in the ARVP16 DNA Binding Assay (Agonist mode) is >20x DMSO control)”.

For `CN(CCCNC(=O)c1ccc(N2C(=S)N(c3cnc(C#N)c(C(F)(F)F)c3)C(=O)C23CCC3)cc1F)C1CCCC1` [Compound 307, 4-(7-(6-Cyano-5-(trifluoromethyl)pyridin-3-yl)-8-oxo-6-thioxo-5,7-diazaspiro[3.4]octan-5-yl)-N-(3-(cyclopentyl(methyl)amino)propyl)-2-fluorobenzamide], in assay [1], the IC50 was < 1000 nM. In addition, in assay [2], the “ARVP16 DNA Binding Assay” value is given as “No (Agonist defined as a compound whose Emax in the ARVP16 DNA Binding Assay (Agonist mode) is >20x DMSO control)”.

As for `N#Cc1ncc(N2C(=O)C3(CCC3)N(c3ccc(C(=O)NCCCN4CCCC4=O)c(F)c3)C2=S)cc1C(F)(F)F` [Compound 308, 4-(7-(6-Cyano-5-(trifluoromethyl)pyridin-3-yl)-8-oxo-6-thioxo-5,7-diazaspiro[3.4]octan-5-yl)-2-fluoro-N-(3-(2-oxopyrrolidin-1-yl)propyl)benzamide], the IC50 in assay [1] is < 1000 nM. In addition, the “ARVP16 DNA Binding Assay” value in assay [2] was “No (Agonist defined as a compound whose Emax in the ARVP16 DNA Binding Assay (Agonist mode) is >20x DMSO control)”.

Consider `Cc1cc(N2C(=O)C3(CCC3)N(c3ccc(C(=O)NCC4CCOCC4)c(F)c3)C2=S)cnc1C#N` [Compound 311, 4-(7-(6-Cyano-5-methylpyridin-3-yl)-8-oxo-6-thioxo-5,7-diazaspiro[3.4]octan-5-yl)-2-fluoro-N-((tetrahydro-2H-pyran-4-yl)methyl)benzamide], for which the IC50 in assay [1] is > 1000 nM. Besides, the “ARVP16 DNA Binding Assay” value in assay [2] is “No (Agonist defined as a compound whose Emax in the ARVP16 DNA Binding Assay (Agonist mode) is >20x DMSO control)”.

Regarding `N#Cc1ncc(N2C(=O)C3(CCC3)N(c3ccc(C(=O)NCCCN4CCC(F)(F)C4)c(F)c3)C2=S)cc1C(F)(F)F` [Compound 313, 4-(7-(6-Cyano-5-(trifluoromethyl)pyridin-3-yl)-8-oxo-6-thioxo-5,7-diazaspiro[3.4]octan-5-yl)-N-(3-(3,3-difluoropyrrolidin-1-yl)propyl)-2-fluorobenzamide], in assay [1], the IC50 was < 1000 nM. Also, in assay [2], the “ARVP16 DNA Binding Assay” value is given as “No (Agonist defined as a compound whose Emax in the ARVP16 DNA Binding Assay (Agonist mode) is >20x DMSO control)”.

As usually defined, the IC50 is the concentration that inhibits the measured activity by half.
